Values joined by “and” are separate entries in the source; they are usually repeats but may differ in a detail not shown here. Equal entries are not always repeated. Inconclusive results and toxic doses are left out. How the source made its calls: active means survival T/C of 150% or more; inactive means T/C below 125% in these data.
System: BDF1 mice, B16 melanoma ip, median survival T/C
Test: NCI In Vivo Anticancer Drug Screen. Data for tumor model B16 Melanoma (intraperitoneal) in B6D2F1 (BDF1) mice
Details: endpoint: median survival time, higher = longer survival
In short: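 The ratio T/C compares compound-treated mice with vehicle-treated controls, using survival or tumor size as the endpoint in a transplantable tumor model.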

[1] = dose: 50.0 mg/kg/injection, schedule: Q01DX009 (ip), vehicle: Klucel (hydroxypropylcellulose) (HPC)
[2] = dose: 100.0 mg/kg/injection, schedule: Q01DX009 (ip), vehicle: Klucel (hydroxypropylcellulose) (HPC)
[3] = dose: 50.0 mg/kg/injection, schedule: Q01DX009 (ip), vehicle: saline
[4] = dose: 12.5 mg/kg/injection, schedule: Q01DX009 (ip), vehicle: Klucel (hydroxypropylcellulose) (HPC)
[5] = dose: 25.0 mg/kg/injection, schedule: Q01DX009 (ip), vehicle: Klucel (hydroxypropylcellulose) (HPC)
[6] = dose: 25.0 mg/kg/injection, schedule: Q01DX009 (ip), vehicle: saline with Tween-80
[7] = dose: 50.0 mg/kg/injection, schedule: Q01DX009 (ip), vehicle: saline with Tween-80
[8] = dose: 100.0 mg/kg/injection, schedule: Q01DX009 (ip), vehicle: saline with Tween-80
[9] = dose: 200.0 mg/kg/injection, schedule: Q01DX009 (ip), vehicle: Klucel (hydroxypropylcellulose) (HPC)
[10] = dose: 200.0 mg/kg/injection, schedule: Q01DX009 (ip), vehicle: saline with Tween-80
[11] = dose: 400.0 mg/kg/injection, schedule: Q01DX009 (ip), vehicle: Klucel (hydroxypropylcellulose) (HPC)
[12] = dose: 400.0 mg/kg/injection, schedule: Q01DX009 (ip), vehicle: saline with Tween-80
[13] = dose: 12.5 mg/kg/injection, schedule: Q01DX009 (ip), vehicle: saline
[14] = dose: 25.0 mg/kg/injection, schedule: Q01DX009 (ip), vehicle: saline

Measured: T/C

NNC(=O)c1ccccn1
inactive: dose: 25.0 mg/kg/injection, schedule: Q01DX009 (ip), vehicle: water 106 % of control | dose: 50.0 mg/kg/injection, schedule: Q01DX009 (ip), vehicle: water 113 % of control

Oc1c(Cl)cc(Cl)cc1/C=N/NC(=S)Nc1cc(C(F)(F)F)cc(C(F)(F)F)c1
inactive: dose: 50.0 mg/kg/injection, schedule: Q01DX009 (ip), vehicle: olive oil, sesame oil, peanut oil 92 % of control | dose: 200.0 mg/kg/injection, schedule: Q01DX009 (ip), vehicle: olive oil, sesame oil, peanut oil 96 % of control

CCCCCCCCC1CCC(N)CC1 (stereo unspecified)
inactive: [1] 93 % of control | [2] 86 % of control

C[N+](C)(C)CC(=O)[O-]
inactive: [3] 108 % of control | dose: 100.0 mg/kg/injection, schedule: Q01DX009 (ip), vehicle: saline 101 % of control

COc1cccc(NC(=O)CCC(=O)O)c1
inactive: dose: 1.56 mg/kg/injection, schedule: Q01DX009 (ip), vehicle: Klucel (hydroxypropylcellulose) (HPC) 89 % of control | dose: 3.12 mg/kg/injection, schedule: Q01DX009 (ip), vehicle: Klucel (hydroxypropylcellulose) (HPC) 102 % of control | dose: 6.25 mg/kg/injection, schedule: Q01DX009 (ip), vehicle: Klucel (hydroxypropylcellulose) (HPC) 92 % of control | [4] 94 % of control

CCCCNC(C)(C)C(SS)c1ccco1 (stereo unspecified)
inactive: dose: 3.0 mg/kg/injection, schedule: Q01DX009 (ip), vehicle: alcohol 107 % of control | dose: 6.0 mg/kg/injection, schedule: Q01DX009 (ip), vehicle: alcohol 107 % of control | dose: 12.0 mg/kg/injection, schedule: Q01DX009 (ip), vehicle: alcohol 112 % of control | dose: 37.5 mg/kg/injection, schedule: Q01DX009 (ip), vehicle: saline 87 % of control | dose: 55.0 mg/kg/injection, schedule: Q01DX009 (ip), vehicle: saline 106 % of control

CC(=O)Nc1ccc(/C=N/NC(N)=S)cc1
inactive: [5] 102 % of control | [6] 108 % of control | [1] 100 % of control | [7] 105 % of control | [2] 102 % of control | [8] 100 % of control | [9] 105 % of control | [10] 98 % of control | [11] 100 % of control | [12] 95 % of control

[O-]c1c[n+](C23CCC(c4ccccc42)c2ccccc23)no1
inactive: dose: 75.0 mg/kg/injection, schedule: Q01DX009 (ip), vehicle: Klucel (hydroxypropylcellulose) (HPC) 102 % of control | dose: 150.0 mg/kg/injection, schedule: Q01DX009 (ip), vehicle: Klucel (hydroxypropylcellulose) (HPC) 100 % of control | dose: 300.0 mg/kg/injection, schedule: Q01DX009 (ip), vehicle: Klucel (hydroxypropylcellulose) (HPC) 108 % of control

O=C(C1CO1)C(Cl)(Cl)Cl (stereo unspecified)
inactive: [13] 105 % of control | [14] 110 % of control

Cc1ccc(N=CN(C)Sc2ccc(C(C)(C)C)cc2)c(C)c1
inactive: [5] 100 % of control | [1] 98 % of control | [2] 95 % of control | [9] 94 % of control

C/C(=N\NC(N)=O)C1=C(O)C(C(C)C)NC1=O (stereo unspecified)
inactive: [7] 91 % of control | [8] 86 % of control | [10] 91 % of control | [12] 91 % of control

CC1(C)N=C(N)N=C(N)N1c1ccc(CCCCc2ccc(S(=O)(=O)F)cc2Cl)c(Cl)c1
inactive: dose: 1.56 mg/kg/injection, schedule: Q01DX009 (ip), vehicle: saline with Tween-80 120 % of control | dose: 3.13 mg/kg/injection, schedule: Q01DX009 (ip), vehicle: saline with Tween-80 120 % of control | dose: 3.13 mg/kg/injection, schedule: Q01DX009 (ip), vehicle: saline 117 % of control | dose: 9.4 mg/kg/injection, schedule: Q04DX003 (ip), vehicle: saline 120 % of control | dose: 18.75 mg/kg/injection, schedule: Q04DX003 (ip), vehicle: saline 119 % of control | dose: 133.0 mg/kg/injection, schedule: Q04DX003 (ip), vehicle: saline with Tween-80 95 % of control
active: dose: 6.25 mg/kg/injection, schedule: Q01DX009 (ip), vehicle: saline with Tween-80 176 % of control | dose: 12.5 mg/kg/injection, schedule: Q01DX009 (ip), vehicle: saline with Tween-80 158 % of control and 189 % of control | [6] 164 % of control and 200 % of control | [14] 158 % of control | [7] 182 % of control and 189 % of control | [3] 178 % of control | dose: 89.0 mg/kg/injection, schedule: Q04DX003 (ip), vehicle: saline with Tween-80 157 % of control | [8] 197 % of control | dose: 150.0 mg/kg/injection, schedule: Q04DX003 (ip), vehicle: saline 160 % of control

COc1cc2c(cc1OC)-c1ccc3cc4c(cc3c1N(C)C2)OCO4
inactive: dose: 5.0 mg/kg/injection, schedule: Q01DX009 (ip), vehicle: water 103 % of control | dose: 10.0 mg/kg/injection, schedule: Q01DX009 (ip), vehicle: water 102 % of control | dose: 20.0 mg/kg/injection, schedule: Q01DX009 (ip), vehicle: water 100 % of control | dose: 40.0 mg/kg/injection, schedule: Q01DX009 (ip), vehicle: water 101 % of control | dose: 80.0 mg/kg/injection, schedule: Q01DX009 (ip), vehicle: water 102 % of control

O=C(CCN1CCCCC1)c1cccc([N+](=O)[O-])c1
inactive: dose: 12.5 mg/kg/injection, schedule: Q04DX003 (ip), vehicle: saline 105 % of control | dose: 25.0 mg/kg/injection, schedule: Q04DX003 (ip), vehicle: saline 113 % of control | dose: 50.0 mg/kg/injection, schedule: Q04DX003 (ip), vehicle: saline 100 % of control | dose: 100.0 mg/kg/injection, schedule: Q04DX003 (ip), vehicle: Klucel (hydroxypropylcellulose) (HPC) 94 % of control

Oc1ccc(Nc2c3ccccc3nc3c2ccc2ccccc23)cc1CN(CCCl)CCCl
inactive: dose: 0.3 mg/kg/injection, schedule: Q01DX009 (ip), vehicle: saline 100 % of control | dose: 0.45 mg/kg/injection, schedule: Q01DX009 (ip), vehicle: saline 117 % of control | dose: 0.8 mg/kg/injection, schedule: Q01DX009 (ip), vehicle: saline 100 % of control | dose: 1.2 mg/kg/injection, schedule: Q01DX009 (ip), vehicle: saline 107 % of control

CCn1c(=O)c2[nH]c(Cl)nc2n(CC)c1=O
inactive: dose: 1.25 mg/kg/injection, schedule: Q## X032 (ip), vehicle: water 103 % of control | dose: 2.5 mg/kg/injection, schedule: Q## X032 (ip), vehicle: water 101 % of control | dose: 5.0 mg/kg/injection, schedule: Q## X032 (ip), vehicle: water 103 % of control | dose: 10.0 mg/kg/injection, schedule: Q## X032 (ip), vehicle: water 97 % of control

CN(C)N=Nc1ccnc2c(Cl)cccc12
inactive: dose: 10.8 mg/kg/injection, schedule: Q01DX009 (ip), vehicle: DMSO 101 % of control | dose: 18.0 mg/kg/injection, schedule: Q01DX009 (ip), vehicle: DMSO 103 % of control | dose: 30.0 mg/kg/injection, schedule: Q01DX009 (ip), vehicle: DMSO 101 % of control | dose: 50.0 mg/kg/injection, schedule: Q01DX009 (ip), vehicle: DMSO 99 % of control

CCOC(=O)C(=Cc1ccc(Cl)cc1)C(=O)OCC
inactive: [4] 94 % of control | [1] 94 % of control | [2] 89 % of control

CCC(=O)Nc1ccc(C)c(Cl)c1
inactive: [8] 105 % of control | [10] 105 % of control | [12] 115 % of control

CN=C(N)Nc1ccc(C(=O)Oc2ccc([N+](=O)[O-])cc2)cc1
inactive: [4] 103 % of control | [5] 102 % of control | [1] 104 % of control | [2] 106 % of control

O=C(Nc1ccccc1)c1ccc(C(F)(F)F)cc1O
inactive: [5] 95 % of control | [1] 95 % of control

CN(C)CCC=C1c2ccccc2CCc2ccccc21
inactive: dose: 3.12 mg/kg/injection, schedule: Q01DX009 (ip), vehicle: saline 109 % of control | dose: 6.25 mg/kg/injection, schedule: Q01DX009 (ip), vehicle: saline 117 % of control | [13] 100 % of control | [14] 102 % of control

O=C1N[C@H]2[C@H](CS[C@H]2CCCCC(=O)N(CCP(c2ccccc2)c2ccccc2)CCP(c2ccccc2)c2ccccc2)N1
inactive: [5] 112 % of control | [1] 120 % of control | [9] 123 % of control | [11] 108 % of control
